How the values were obtained:
[1] = molecular target: Recombinant human CD33 protein (Homo sapiens (Human), UniProt P20138); assay: CD33 competitive binding assay for HTS drug screen (fluorescent multivalent sialic acid probe)
In short: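 Inhibition was read as reduced retention of a fluorescent multivalent sialic acid complex (final 5 μM neutravidin, 15 μM A-375, 5 μM biotin-4-FITC) on plate-immobilized human CD33. Compound was added first, the probe followed for 30 min at room temperature in PBS with 0.2% Tween-20 and 0.5% BSA, and FITC was measured after a wash.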

[2] = molecular target: Recombinant Human Siglec-3/CD33 protein (His-CD33) (Homo sapiens (Human), UniProt P20138); assay: Differential scanning fluorimetry (DSF) thermal shift assay; type: binding
Chain of Recombinant Human Siglec-3/CD33 protein (His-CD33) (P20138 18-259): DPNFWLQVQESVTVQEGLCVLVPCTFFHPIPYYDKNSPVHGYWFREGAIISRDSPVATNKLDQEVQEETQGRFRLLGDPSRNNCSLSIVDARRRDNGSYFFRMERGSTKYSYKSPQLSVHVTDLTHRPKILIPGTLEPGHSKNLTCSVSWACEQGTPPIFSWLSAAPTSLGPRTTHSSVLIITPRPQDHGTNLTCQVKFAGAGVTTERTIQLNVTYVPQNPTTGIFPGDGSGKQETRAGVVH

[3] = thermal melt shift of 0.5 μM CD33 protein with 50 μM compound
[4] = difference in thermal melt of CD33 protein (0.5 μM) with 50 μM compound

Chain of Recombinant human CD33 protein (P20138 18-259): as above

SMILES	EC50 [1] [nM]	DSF (dTmD) [2, 3]	DSF (dTmD) [2, 4] [°C]
CC(=O)N[C@H]1[C@H]([C@H](O)[C@H](O)CNC(=O)c2ccc3nsnc3c2)O[C@@](CCN2CCOC[C@@]23CCN(C(=O)OC(C)(C)C)C3)(C(=O)O)C[C@@H]1O [A-153]	196	10.1	–
CC(=O)N[C@H]1[C@H]([C@H](O)[C@H](O)CNC(=O)c2ccc(C(F)(F)F)c(C)c2)O[C@@](CCN2CCOC[C@@]23CCN(C(=O)OC(C)(C)C)C3)(C(=O)O)C[C@@H]1O [A-144]	230	11.0	–
COc1cc(C(=O)NC[C@@H](O)[C@@H](O)[C@@H]2O[C@@](CCN3CCOC[C@@]34CCN(C(=O)OC(C)(C)C)C4)(C(=O)O)C[C@H](O)[C@H]2NC(C)=O)ccc1C#N [A-165]	1140	5.7	–
CC(=O)N[C@H]1[C@H]([C@H](O)[C@H](O)CNC(=O)c2cc(C)c(O)c(C)c2)O[C@@](CCN2CCOC[C@@]23CCN(C(=O)C2CC(C)(C)C2)C3)(C(=O)O)C[C@@H]1O [A-080]	68	10.2	–
CC(=O)N[C@H]1[C@H]([C@H](O)[C@H](O)CNC(=O)c2ccc(Cl)c(Cl)c2)O[C@@](CCN2CCOC[C@@]23CCN(C(=O)OC(C)(C)C)C3)(C(=O)O)C[C@@H]1O [A-186]	127	10.8	–
CC(=O)N[C@H]1[C@H]([C@H](O)[C@H](O)CNC(=O)c2cc(C)c(O)c(C)c2)O[C@@](C[C@H]2COC[C@]3(CCN(C(=O)OC(C)(C)C)C3)N2)(C(=O)O)C[C@@H]1O [A-224]	143	–	8.9
CC(=O)N[C@H]1[C@H]([C@H](O)[C@H](O)CNC(=O)c2cc(C)c(O)c(C)c2)O[C@@](CCN2CCOCC2c2cccnc2)(C(=O)O)C[C@@H]1O (stereo partly drawn) [A-024]	7940	1.1	–
CC(=O)N[C@H]1[C@H]([C@H](O)[C@H](O)CNC(=O)c2cn(C)nc2C)O[C@@](CCN2CCOC[C@@]23CCN(C(=O)OC(C)(C)C)C3)(C(=O)O)C[C@@H]1O [A-136]	440	6.5	–
COC(=O)[C@@]1(CCN2CCOC[C@@]23CCN(C(=O)OC(C)(C)C)C3)CCC[C@H](C[C@H](O)CNC(=O)c2cc(C)c3[nH]ccc3c2)O1 [A-206, tert-butyl (S)-6-(2-((2S,6R)-6-((S)-2-hydroxy-3-(7-methyl-1H-indole-5-carboxamido)propyl)-2-(methoxycarbonyl)tetrahydro-2H-pyran-2-yl)ethyl)-9-oxa-2,6-diazaspiro[4.5]decane-2-carboxylate]	> 100000	–	0.1
CC(=O)N[C@H]1[C@H]([C@H](O)[C@H](O)CNC(=O)c2cc(C)c(O)c(C)c2)O[C@@](C[C@H]2COC[C@@]3(CCN(C(=O)NC(C)(C)C)C3)N2)(C(=O)O)C[C@@H]1O [A-228]	14	–	13.4
CC(=O)N[C@H]1[C@H]([C@H](O)[C@H](O)CNC(=O)c2ccc3[nH]nc(F)c3c2)O[C@@](CCN2CCOC[C@@]23CCN(C(=O)OC(C)(C)C)C3)(C(=O)O)C[C@@H]1O [A-128]	50	11.5	–
COc1ccc(C(=O)NC[C@@H](O)[C@@H](O)[C@@H]2O[C@@](CCN3CCOC[C@@]34CCN(C(=O)OC(C)(C)C)C4)(C(=O)O)C[C@H](O)[C@H]2NC(C)=O)cc1OC [A-120]	40	12.2	–
CC(=O)N[C@H]1[C@H]([C@H](O)[C@H](O)CNC(=O)c2c[nH]c(C)c2)O[C@@](CCN2CCOC[C@@]23CCN(C(=O)OC(C)(C)C)C3)(C(=O)O)C[C@@H]1O [A-113]	34	11.1	–
CC(=O)N[C@H]1[C@H]([C@H](O)[C@H](O)CNC(=O)c2cc(C)c(O)c(C)c2)O[C@@](CCCC2(C)CCN(C(=O)OC(C)(C)C)C2)(C(=O)O)C[C@@H]1O (stereo partly drawn) [A-196]	257	7.7	–
CC(=O)N[C@H]1[C@H]([C@H](O)[C@H](O)CNC(=O)c2cc(C)c(O)c(C)c2)O[C@@](CCN2CCOC[C@@]23CCN(C(=O)NC2CCCCC2)C3)(C(=O)O)C[C@@H]1O [A-045]	19	12.6	–
CC(=O)N[C@H]1[C@H]([C@H](O)[C@H](O)CNC(=O)c2cc(C)c(O)c(C)c2)O[C@@](CCN2CCOC[C@@]23CCN(C(=O)NC24CC5CC(CC(C5)C2)C4)C3)(C(=O)O)C[C@@H]1O [A-049]	41	13.5	–
C=CC[C@@]1(NCC[C@]2(C(=O)O)C[C@H](O)[C@@H](NC(C)=O)[C@H]([C@H](O)[C@H](O)CNC(=O)c3cc(C)c(O)c(C)c3)O2)CCN(C(=O)OC(C)(C)C)C1 [A-032]	181	8.4	–
CC(=O)N[C@H]1[C@H]([C@H](O)[C@H](O)CNC(=O)c2cc(Br)c(O)c(Br)c2)O[C@@](CCN2CCOC[C@@]23CCN(C(=O)OC(C)(C)C)C3)(C(=O)O)C[C@@H]1O [A-115]	7	15.1	–

Second part, the molecule after the results:

EC50 [1] [nM]	DSF (dTmD) [2, 3]	DSF (dTmD) [2, 4] [°C]	SMILES
10900	–	4.4	Cc1cc(C(=O)NC[C@@H](O)[C@@H](O)[C@@H]2O[C@@](OCCOCCNC(=O)OCc3ccccc3)(C(=O)O)C[C@H](O)[C@H]2NC(=O)Cn2cc(C3CCCCC3)nn2)cc(C)c1O [A-323]
7970	–	5.3	CC(=O)N[C@H]1[C@H]([C@H](O)[C@H](O)CNC(=O)c2cc(C)c(O)c(C)c2)O[C@@](C/C=C/c2cccc(CNC(=O)c3cccc(Nc4nccs4)c3)c2)(C(=O)O)C[C@@H]1O [A-241]
6330	–	5.5	Cc1cc(C(=O)NC[C@@H](O)[C@@H](O)[C@@H]2O[C@@](C/C=C/c3cccc(CNC(=O)C4CCCC4)c3)(C(=O)O)C[C@H](O)[C@H]2NC(=O)Cn2cc(C3CCCCC3)nn2)cc(C)c1O [A-264]
9370	–	0.8	CC(=O)N[C@H]1[C@H]([C@H](O)[C@H](O)CNC(=O)c2cc(C)c(O)c(C)c2)O[C@@](C/C=C/c2cccc(CNC(=O)C3CCC(Nc4ccc(C(N)=O)cn4)CC3)c2)(C(=O)O)C[C@@H]1O (stereo partly drawn) [A-258]
930	–	4.6	CC(=O)N[C@H]1[C@H]([C@H](O)[C@H](O)CNC(=O)c2cc(C)c(O)c(C)c2)O[C@@](C/C=C/c2cccc(CNC(=O)c3ccc4[nH]ccc4c3)c2)(C(=O)O)C[C@@H]1O [A-234]
3500	–	4.22	Cc1cc2cc(C)c1OCCOC[C@@H](NC(=O)C1CCCOC1)COCCCC[C@]1(C(=O)O)C[C@H](O)[C@@H](NC(=O)Cn3cc(C4CCCCC4)nn3)[C@@H](O1)[C@H](O)[C@H](O)CNC2=O (stereo partly drawn) [A-340]
1120	–	2.2	CC(=O)N[C@H]1[C@H]([C@H](O)[C@H](O)CNC(=O)c2cc(C)c(O)c(C)c2)O[C@@](C/C=C/c2cccc(CNC(=O)c3ccc(NS(C)(=O)=O)cc3)c2)(C(=O)O)C[C@@H]1O [A-239]
2840	–	2.2	Cc1ccc(CNC(=O)C2CCCOC2)cc1/C=C/C[C@]1(C(=O)O)C[C@H](O)[C@@H](NC(=O)Cn2cc(C3CCCCC3)nn2)[C@H]([C@H](O)[C@H](O)CNC(=O)c2cc(C)c(O)c(C)c2)O1 (stereo partly drawn) [A-286]
7850	–	0.1	CC(=O)N[C@H]1[C@H]([C@H](O)[C@H](O)CNC(=O)c2cc(C)c(O)c(C)c2)O[C@@](CC2OC(C)(C)O[C@H]2c2cccc3c2CN(C(=O)OC(C)(C)C)C3)(C(=O)O)C[C@@H]1O (stereo partly drawn) [A-314]
502	–	7.6	CC(=O)N[C@H]1[C@H]([C@H](O)[C@H](O)CNC(=O)c2cc(C)c(O)c(C)c2)O[C@@](C/C=C/c2cccc(CNC(=O)c3ccc4[nH]ccc4c3)c2)(C(=O)O)C[C@@H]1O [A-242]
6540	–	4.6	CC(=O)N[C@H]1[C@H]2O[C@](C(=O)O)(C/C=C/COC[C@@H](NC(=O)OC(C)(C)C)COCCCOc3c(C)cc(cc3C)C(=O)NC[C@@H](O)[C@H]2O)C[C@@H]1O [A-343]
512	–	8.0	Cc1cc(C(=O)NC[C@@H](O)[C@@H](O)[C@@H]2O[C@@](CC3OC(C)(C)O[C@H]3c3cccc(NC(=O)OC(C)(C)C)c3)(C(=O)O)C[C@H](O)[C@H]2NC(=O)Cn2cc(C3CCCCC3)nn2)cc(C)c1O (stereo partly drawn) [A-299]
15000	–	3.1	CC(=O)N[C@H]1[C@H]2O[C@](C(=O)O)(CCCc3cccc(c3)[C@@H](NC(=O)C3CCCOC3)CCCCc3cc(cc(Cl)c3O)C(=O)NC[C@@H](O)[C@H]2O)C[C@@H]1O (stereo partly drawn) [A-351]
3260	–	8.4	CC(=O)N[C@H]1[C@H]([C@H](O)[C@H](O)CNC(=O)c2cc(C)c(O)c(C)c2)O[C@@](C/C=C/c2cccc(CNC(=O)c3ccc4[nH]c(-c5c[nH]c6ccccc56)cc4c3)c2)(C(=O)O)C[C@@H]1O [A-250]
1160	–	6.0	Cc1ccc(CN(C)C(=O)C2CCCOC2)cc1/C=C/C[C@]1(C(=O)O)C[C@H](O)[C@@H](NC(=O)Cn2cc(C3CCCCC3)nn2)[C@H]([C@H](O)[C@H](O)CNC(=O)c2cc(C)c(O)c(C)c2)O1 (stereo partly drawn) [A-287]
6360	–	0.5	CC(=O)N[C@H]1[C@H]([C@H](O)[C@H](O)CNC(=O)c2cc(C)c(O)c(C)c2)O[C@@](CC2OC(C)(C)O[C@H]2c2cccc(C(=O)NCc3ccccc3)c2)(C(=O)O)C[C@@H]1O (stereo partly drawn) [A-311]
1680	–	6.2	Cc1cc(C(=O)NC[C@@H](O)[C@@H](O)[C@@H]2O[C@@](C/C=C/c3cccc(CNC(=O)C4CCC[C@H](NS(C)(=O)=O)C4)c3)(C(=O)O)C[C@H](O)[C@H]2NC(=O)Cn2cc(C3CCCCC3)nn2)cc(C)c1O (stereo partly drawn) [A-282]
> 100000	–	0.1	CC(=O)N[C@H]1[C@H]([C@H](O)[C@H](O)CNC(=O)c2cc(C)c(O)c(C)c2)O[C@@](CCN2CCOC[C@@]23CCN(C(=O)OC(C)(C)C)C3)(C(=O)NS(=O)(=O)C(F)(F)F)C[C@@H]1O [A-367]
